Laboratory results from US6319702A, “Nucleic acids encoding mutant human carboxypeptidase A enzymes” (Glaxo Wellcome, Inc., priority 1993, dated 2001).
Values joined by “and” are separate entries in the source; they are usually repeats but may differ in a detail not shown here. Identical values can stand only once. Like-named read-outs stand apart in the source and are kept apart here.

Test: Stability and biodistribution of prodrugs in vivo (HPLC of plasma and tissues)
Design: species or system mice (CD-1 nude; BALB/C where indicated)
Conditions: 50 mg/kg i.p. or i.v., CD-1 nude mice
[1] = LARGE INTESTINE, 30 min, 50 mg/kg
[2] = LIVER, 120 min, listed as 552W92, 50 mg/kg
[3] = mouse, kidney, 50 mg/kg, KIDNEY, 30 min, read-out: stability: percentage of material observed as intact prodrug, kidney
[4] = mouse, large intestine, 50 mg/kg, LARGE INTESTINE, 30 min, read-out: stability: percentage of material observed as intact prodrug, large intestine
[5] = mouse, liver, 50 mg/kg, LIVER, 30 min, read-out: stability: percentage of material observed as intact prodrug, liver (converted)
[6] = mouse, plasma, 50 mg/kg, PLASMA, 30 min, read-out: stability: percentage of material observed as intact prodrug, plasma
[7] = mouse, plasma, 50 mg/kg, PLASMA, 120 min, read-out: concentration of prodrug in plasma
[8] = mouse, small intestine, 50 mg/kg, SMALL INTESTINE, 30 min, read-out: stability: percentage of material observed as intact prodrug, small intestine
[9] = mouse, small intestine, 50 mg/kg, SMALL INTESTINE, 120 min, read-out: stability: percentage of material observed as intact prodrug, small intestine

Compound: Cc1nc2ccc3ccc(CNc4ccc(C(=O)N[C@@H](CCC(=O)O)C(=O)N[C@@H](Cc5cccc6ccccc56)C(=O)O)c(F)c4)cc3c2c(=O)[nH]1 [Prodrug 3, N-(N-(2-fluoro-4-(((1,2-dihydro-3-methyl-1-oxobenzo(F)quinazolin-9-yl)methyl)amino)benzoyl)-L-glutam-1-yl)-3-(1-naphthyl)-L-alanine]
- concentration of prodrug in kidney (KIDNEY, 30 min, 50 mg/kg): 41.7 nmol/g and 29.2 nmol/g
- concentration of prodrug in large intestine [1]: 23.4 nmol/g and 14.9 nmol/g
- stability: percentage of material observed as intact prodrug, large intestine [1]: 94%
- concentration of prodrug in large intestine (LARGE INTESTINE, 120 min, listed as 552W92, 50 mg/kg): 1.7 nmol/g and 1.1 nmol/g
- concentration of prodrug in liver (LIVER, 30 min, 50 mg/kg): 128.8 nmol/g and 135.3 nmol/g
- concentration of prodrug in liver [2]: 267.9 nmol/g and 371.2 nmol/g
- stability: percentage of material observed as intact prodrug, liver [2]: 90%
- stability: percentage of material observed as intact prodrug, plasma (PLASMA, 120 min, listed as 552W92, 50 mg/kg): 48%
- concentration (PLASMA, 120 min, listed as 552W92, 50 mg/kg, 120 min, read-out: concentration of prodrug in plasma): 2.8 µM
- concentration of prodrug in small intestine (SMALL INTESTINE, 30 min): 27.7 nmol/g
- concentration of prodrug in small intestine (SMALL INTESTINE, 120 min): 1.8 nmol/g
- stability: percentage of material observed as intact prodrug, spleen (SPLEEN, 30 min, 50 mg/kg): 100%
- stability: percentage of material observed as intact prodrug, spleen (SPLEEN, 120 min, listed as 552W92, 50 mg/kg): 100%
- remaining at 0.5 h [3]: 82%
- remaining at 2 h (mouse, kidney, 50 mg/kg, KIDNEY, 120 min, read-out: stability: percentage of material observed as intact prodrug, kidney): 74%
- remaining at 0.5 h [4]: 87%
- remaining at 2 h (mouse, large intestine, 50 mg/kg, LARGE INTESTINE, 120 min, read-out: stability: percentage of material observed as intact prodrug, large intestine): 89%
- remaining at 0.5 h [5]: 79%
- remaining at 2 h (mouse, liver, 50 mg/kg, LIVER, 120 min, read-out: stability: percentage of material observed as intact prodrug, liver): 74%
- remaining at 0.5 h [6]: 93%
- concentration at 2 h [7]: 5.1 µM
- remaining at 0.5 h [8]: 10%
- remaining at 2 h [9]: 1%
- remaining at 0.5 h (mouse, spleen, 50 mg/kg, SPLEEN, 30 min, read-out: stability: percentage of material observed as intact prodrug, spleen): 95%
- remaining at 2 h (mouse, spleen, 50 mg/kg, SPLEEN, 120 min, read-out: stability: percentage of material observed as intact prodrug, spleen): 89%

Compound: Cc1nc2ccc3ccc(CNc4ccc5c(c4)CN([C@@H](CCC(=O)O)C(=O)N[C@@H](Cc4ccccc4)C(=O)O)C5=O)cc3c2c(=O)[nH]1 [Prodrug 2, N-((S)-4-carboxy-2-(5-(((1,2-dihydro-3-methyl-1-oxoxbenzo(F)quinazolin-9-yl)methyl)amino)-1-oxo-2-isoindolinyl)butanoyl)-L-phenylalanine]
- concentration of prodrug in cecum (CECUM, 30 min): 2.7 nmol/g
- concentration of prodrug in kidney (KIDNEY, 30 min): 9.0 nmol/g
- concentration of prodrug in kidney (KIDNEY, 90 min): 1.3 nmol/g
- concentration of prodrug in kidney (KIDNEY, 180 min): 0.2 nmol/g
- concentration of prodrug in large intestine (LARGE INTESTINE, 30 min): 5.9 nmol/g
- concentration of prodrug in large intestine (LARGE INTESTINE, 90 min): 0.7 nmol/g
- concentration of prodrug in large intestine (LARGE INTESTINE, 180 min): 1.3 nmol/g
- concentration of prodrug in liver (LIVER, 30 min): 42.0 nmol/g
- concentration of prodrug in liver (LIVER, 90 min): 9.1 nmol/g
- concentration of prodrug in liver (LIVER, 180 min): 0.8 nmol/g
- concentration (PLASMA, 30 min, 50 mg/kg, 30 min, read-out: concentration of prodrug in plasma): 22.1 µM
- concentration of prodrug in small intestine (SMALL INTESTINE, 30 min): 170.2 nmol/g
- concentration of prodrug in small intestine (SMALL INTESTINE, 120 min): 17.6 nmol/g
- concentration of prodrug in tumor (TUMOR, 30 min): 2.7 nmol/g
- remaining at 0.5 h (mouse, cecum, 50 mg/kg, CECUM, 30 min, read-out: stability: percentage of material observed as intact prodrug, cecum): 96%
- remaining at 0.5 h [3]: 96%
- remaining at 1.5 h (mouse, kidney, 50 mg/kg, KIDNEY, 90 min, read-out: stability: percentage of material observed as intact prodrug, kidney): 98%
- remaining at 3 h (mouse, kidney, 50 mg/kg, KIDNEY, 180 min, read-out: stability: percentage of material observed as intact prodrug, kidney): 100%
- remaining at 0.5 h [4]: 93%
- remaining at 1.5 h (mouse, large intestine, 50 mg/kg, LARGE INTESTINE, 90 min, read-out: stability: percentage of material observed as intact prodrug, large intestine): 60%
- remaining at 3 h (mouse, large intestine, 50 mg/kg, LARGE INTESTINE, 180 min, read-out: stability: percentage of material observed as intact prodrug, large intestine): 52%
- remaining at 0.5 h [5]: 96%
- remaining at 1.5 h (mouse, liver, 50 mg/kg, LIVER, 90 min, read-out: stability: percentage of material observed as intact prodrug, liver): 100%
- remaining at 3 h (mouse, liver, 50 mg/kg, LIVER, 180 min, read-out: stability: percentage of material observed as intact prodrug, liver): 100%
- concentration at 0.5 h (mouse, plasma, 50 mg/kg, PLASMA, 30 min, read-out: concentration of prodrug in plasma): 33 µM
- remaining at 0.5 h [6]: 100%
- concentration at 1.5 h (mouse, plasma, 50 mg/kg, PLASMA, 90 min, read-out: concentration of prodrug in plasma): 5.5 µM
- remaining at 1.5 h (mouse, plasma, 50 mg/kg, PLASMA, 90 min, read-out: stability: percentage of material observed as intact prodrug, plasma): 98%
- concentration at 2 h [7]: 0.3 µM
- remaining at 2 h (mouse, plasma, 50 mg/kg, PLASMA, 120 min, read-out: stability: percentage of material observed as intact prodrug, plasma): 93%
- concentration at 3 h (mouse, plasma, 50 mg/kg, PLASMA, 180 min, read-out: concentration of prodrug in plasma): 3.5 µM
- remaining at 3 h (mouse, plasma, 50 mg/kg, PLASMA, 180 min, read-out: stability: percentage of material observed as intact prodrug, plasma): 97%
- remaining at 0.5 h [8]: 91%
- remaining at 2 h [9]: 47%
- remaining at 0.5 h (mouse, tumor, 50 mg/kg, TUMOR, 30 min, read-out: stability: percentage of material observed as intact prodrug, tumor): 98%
